SMILES strings stand for the structures.

What all share (parameters): key: 0: normal development; 1: Less damaged; 2: Slightly damaged; 3: Moderately damaged; 4: Severely damaged; 5: All killed
The test system of test [1] is young rice plant. In words: Herbicidal test for paddy field. Particulars: paddy field pot, 500 g/ha dropwise at 1.5 leaf stage of barnyardgrass, 3 weeks, rank vs non-treated. The test is classed as in vivo. The essentials:
(§1)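 Under flooded conditions (3 cm water over Ube soil), each compound was delivered by pipet as a diluted wettable powder (0.05% surfactant) at 500 g/ha, timed to 1.5-leaf barnyardgrass. Plants stayed 3 weeks in a 25° C glasshouse before injury was graded from 0 (normal) to 5 (all killed).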

Test [2] relates to barnyardgrass. The test is described as follows: Herbicidal test for paddy field. The test is classed as in vivo, Echinochloa crusgalli. Particulars: paddy field pot, 500 g/ha dropwise at 1.5 leaf stage of barnyardgrass, 3 weeks, rank vs non-treated. The essentials: as §1
Test [3] concerns bulrush. In words: Herbicidal test for paddy field. Particulars: paddy field pot, 500 g/ha dropwise at 1.5 leaf stage of barnyardgrass, 3 weeks, rank vs non-treated. The test is classed as in vivo, Scrips juncoides. The method, boiled down: as §1
Test [4] relates to flat sedge. The test is described as follows: Herbicidal test for paddy field. The test is classed as in vivo, Cyperus serotinus. To be noted: paddy field pot, 500 g/ha dropwise at 1.5 leaf stage of barnyardgrass, 3 weeks, rank vs non-treated. As for the experimental part:
Wagner pots, each having an area of 1/5000 are, were packed with Ube soil (alluvial soil) and planted with seeds or tubers of young rice plant, barnyardgrass, bulrush, flat sedge and monochoria. Then, the pots were filled with water to a depth of 3 cm.
Each wettable powder of the desired compounds (I) shown in Table 1 prepared in accordance with Example 2 was diluted with water containing a surfactant (0.05%) and subjected to dropwise addition treatment by using pipet so that an effective concentration of the compound (I) in each herbicide became 500 g/ha at 1.5 leaf stage of barnyardgrass.
These plants were controlled in a glass house at an average temperature of 25° C. for 3 weeks, and then herbicidal effects thereof were investigated.
The herbicidal effects are evaluated according to the following 6 ranks as compared with non-treated district.
(§2) (0: normal development, 1: Less damaged, 2: Slightly damaged, 3: Moderately damaged, 4: Severely damaged, 5: All killed).

Test [5] deals with monochoria. In words: Herbicidal test for paddy field. The test is classed as in vivo, Monochoria vaginalis. Particulars: paddy field pot, 500 g/ha dropwise at 1.5 leaf stage of barnyardgrass, 3 weeks, rank vs non-treated. The method, boiled down:
as §1

Test [6] has as its system corn. The test is described as follows: Soil treatment test for upland field. Particulars: 500 g/ha, glass house 25° C., 3 weeks. It is filed as in vivo. The method, boiled down: (§3)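 Damage rated on a 0–5 scale (0 normal development, 5 all killed) after 3 weeks in a glasshouse at about 25 °C. Compounds applied as a water-diluted wettable powder (0.05% surfactant) sprayed at 500 g/ha onto soil surface over freshly sown seeds in alluvial Ube soil.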

Test [7] has as its system cotton. The test is described as follows: Soil treatment test for upland field. The test is classed as in vivo. Particulars: 500 g/ha, glass house 25° C., 3 weeks. The essentials: as §3
Test [8] concerns solgum. In words: Soil treatment test for upland field. The test is classed as in vivo. Particulars: 500 g/ha, glass house 25° C., 3 weeks. The method, boiled down:
as §3

Test [9] relates to soybean. In words: Soil treatment test for upland field. The test is classed as in vivo. To be noted: 500 g/ha, glass house 25° C., 3 weeks. The essentials: as §3
For test [10], the system named is sugar beat. In words: Soil treatment test for upland field. The test is classed as in vivo. To be noted: 500 g/ha, glass house 25° C., 3 weeks. The essentials:
as §3

Test [11] has as its system wheat. The test is described as follows: Soil treatment test for upland field. The test is classed as in vivo. Particulars: 500 g/ha, glass house 25° C., 3 weeks. The method, boiled down:
as §3

The subject of test [12] is Large crabgrass. In words: Soil treatment test for upland field. The test is classed as in vivo, Digitaria adscendens. To be noted: 500 g/ha, glass house 25° C., 3 weeks. The method, boiled down: as §3
The test system of test [13] is barnyardgrass. The test is described as follows: Soil treatment test for upland field. It is filed as in vivo, Echinochloa crusgalli. To be noted: 500 g/ha, glass house 25° C., 3 weeks. The essentials:
as §3

For test [14], the system named is green foxtail. The test is described as follows: Soil treatment test for upland field. Particulars: 500 g/ha, glass house 25° C., 3 weeks. It is filed as in vivo, Setaria viridis. The method, boiled down:
as §3

Test [15] has as its system blackgrass. The test is described as follows: Soil treatment test for upland field. It is filed as in vivo, Alopecurus aegualis. Particulars: 500 g/ha, glass house 25° C., 3 weeks. The essentials: as §3
Test [16] relates to annual bluegrass. The test is described as follows: Soil treatment test for upland field. Particulars: 500 g/ha, glass house 25° C., 3 weeks. It is filed as in vivo, Poa annua. The essentials: as §3
Test [17] has as its system common lambsquartes. In words: Soil treatment test for upland field. It is filed as in vivo, Chenopodium album. Particulars: 500 g/ha, glass house 25° C., 3 weeks. The method, boiled down: as §3
The subject of test [18] is livid amaranth. In words: Soil treatment test for upland field. Particulars: 500 g/ha, glass house 25° C., 3 weeks. It is filed as in vivo, Amaranthus lividus. The method, boiled down: as §3
The test system of test [19] is velvetleaf. The test is described as follows: Soil treatment test for upland field. The test is classed as in vivo, Abutilon theophrasti. Particulars: 500 g/ha, glass house 25° C., 3 weeks. The essentials: as §3
For test [20], the system named is corn. In words: Foliar spread test for upland field. It is filed as in vivo. To be noted: foliar spray 500 ppm, 3 weeks, rank vs non-treated. The method, boiled down: (§4)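 Scoring used a 0–5 scale, where 0 meant normal development and 5 meant all plants killed, assessed 3 weeks after treatment. Plants had been grown about 2 weeks from seed in volcanic ash soil before a uniform spray at 500 ppm containing 0.5% surfactant.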

Test [21] has as its system cotton. In words: Foliar spread test for upland field. Particulars: foliar spray 500 ppm, 3 weeks, rank vs non-treated. The test is classed as in vivo. The method, boiled down: as §4
Test [22] concerns solgum. In words: Foliar spread test for upland field. It is filed as in vivo. Particulars: foliar spray 500 ppm, 3 weeks, rank vs non-treated. The method, boiled down:
as §4

The subject of test [23] is soybean. The test is described as follows: Foliar spread test for upland field. The test is classed as in vivo. Particulars: foliar spray 500 ppm, 3 weeks, rank vs non-treated. The essentials:
as §4

The test system of test [24] is sugar beat. The test is described as follows: Foliar spread test for upland field. It is filed as in vivo. To be noted: foliar spray 500 ppm, 3 weeks, rank vs non-treated. The essentials:
as §4

Test [25] relates to wheat. The test is described as follows: Foliar spread test for upland field. Particulars: foliar spray 500 ppm, 3 weeks, rank vs non-treated. It is filed as in vivo. The method, boiled down:
as §4

Test [26] deals with Large crabgrass. The test is described as follows: Foliar spread test for upland field. It is filed as in vivo, Digitaria adscendens. Particulars: foliar spray 500 ppm, 3 weeks, rank vs non-treated. The method, boiled down: (§5)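 Two-week-old glasshouse seedlings on volcanic ash soil were treated by foliar spray at 500 ppm, with 0.5% surfactant in the diluent. Effects were graded visually after three weeks, from 0 for no injury to 5 for complete kill.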

In test [27] the test system is barnyardgrass. In words: Foliar spread test for upland field. The test is classed as in vivo, Echinochloa crusgalli. To be noted: foliar spray 500 ppm, 3 weeks, rank vs non-treated.
From the text: as §2
Wagner pots, each having an area of 1/5000 are, were packed with volcanic ash soil and then each seed of corn, soybean, cotton, wheat, solgum, sugar beat, Large crabgrass, barnyardgrass, green foxtail, blackgrass, annual bluegrass, common lambsquartes, livid amaranth, velvetleaf and morning glory was planted, covered with soil and grown in a glass house at an average temperature of […] for about 2 weeks.
Each wettable powder of the desired compounds (I) shown in Table 1 prepared in accordance with Example 2 was diluted to 500 ppm with water containing a surfactant (0.5%) and then uniformly sprayed on the above respective plants.
After these plants were controlled in a glass house at an average temperature of 25° C. for 3 weeks, the herbicidal effects thereof were investigated.
The herbicidal effects were evaluated according to the evaluation method described in the above (1).

For test [28], the system named is green foxtail. In words: Foliar spread test for upland field. It is filed as in vivo, Setaria viridis. To be noted: foliar spray 500 ppm, 3 weeks, rank vs non-treated. The essentials: as §5
Test [29] deals with blackgrass. The test is described as follows: Foliar spread test for upland field. It is filed as in vivo, Alopecurus aegualis. Particulars: foliar spray 500 ppm, 3 weeks, rank vs non-treated. The method, boiled down: as §5
Test [30] relates to annual bluegrass. The test is described as follows: Foliar spread test for upland field. It is filed as in vivo, Poa annua. Particulars: foliar spray 500 ppm, 3 weeks, rank vs non-treated. The method, boiled down:
as §5

Test [31] concerns common lambsquartes. The test is described as follows: Foliar spread test for upland field. The test is classed as in vivo, Chenopodium album. To be noted: foliar spray 500 ppm, 3 weeks, rank vs non-treated. The method, boiled down: as §5
The subject of test [32] is livid amaranth. In words: Foliar spread test for upland field. It is filed as in vivo, Amaranthus lividus. To be noted: foliar spray 500 ppm, 3 weeks, rank vs non-treated. The method, boiled down:
as §5

Test [33] has as its system velvetleaf. The test is described as follows: Foliar spread test for upland field. It is filed as in vivo, Abutilon theophrasti. To be noted: foliar spray 500 ppm, 3 weeks, rank vs non-treated. The method, boiled down: as §5
Test [34] relates to morning glory. In words: Foliar spread test for upland field. It is filed as in vivo, Ipomoea spps. Particulars: foliar spray 500 ppm, 3 weeks, rank vs non-treated. The essentials:
as §5

For `CCCC(Oc1ccc(F)c(C(F)(F)F)c1)c1nc2cc(F)c(F)cc2o1` (centres unmarked) [Compound 286], in [1], the “Effect Young rice plant” value is given as 3. Also, the “Effect Barnyardgrass” value in test [2] came out at 4. Besides, in [3], the “Effect Bulrush” value turned out to be 5. In addition, in test [4], the “Effect Flat sedge” value was 3. The “Effect Monochoria” value in [5] amounted to 5.
Turning to `CCC(Oc1ccc(F)c(C(F)(F)F)c1)c1nc2ccc(C(F)(F)F)cc2o1` (centres unmarked) [Compound 93], the “Effects Corn” value in [6] is given as 1; in [20] it was 2. Besides, the “Effects Cotton” value in test [7] is 1; in [21] it was 3. The “Effects Solgum” value in test [8] and in test [22] was 1 in each case. In addition, the “Effects Soybean” value in [9] is 2; in test [23], 4. Besides, the “Effects Sugar beat” value turned out to be 5 in [10] and 4 in [24]. Besides, the “Effects Wheat” value in test [11] is listed as 0; in test [25] it was 2. In addition, the “Effects Large crabgrass” value in test [12] worked out at 5; in test [26], 3. Also, the results for the “Effects Barnyardgrass” value in test [13] and in test [27] were 4 and 2, respectively. The “Effects Green foxtail” value in [14] was determined as 5; in test [28], 3. For the same compound, the “Effects Blackgrass” value in [15] turned out to be 3; in test [29], 1. For the same compound, the entries for the “Effects Annual bluegrass” value in test [16] and in test [30] were 5 and 1, respectively. For the same compound, the “Effects Common lambsquarters” value in test [17] is listed as 3; in test [31], 4. Moreover, the “Effects Livid amaranth” value in [18] came out at 5; in test [32], 4. In addition, the “Effects Velvetleaf” value in [19] and in test [33] was 2 in each case. For the same compound, the “Effects Morning glory” value in [34] came out at 3.
As for `CCCC(Oc1cccc(C#N)c1)c1nc2cc(C#N)ccc2o1` (centres unmarked) [Compound 393], the “Effect Young rice plant” value in test [1] was determined as 0. In addition, in test [2], the “Effect Barnyardgrass” value is 4. For the same compound, the “Effect Bulrush” value in [3] turned out to be 5. Also, the “Effect Flat sedge” value in test [4] was found to be 5. Besides, the “Effect Monochoria” value in [5] is recorded as 5.
In the case of `CCCC(Oc1ccc(F)c(C(F)(F)F)c1)c1nc2ccc(C(F)(F)F)cc2o1` (centres unmarked) [Compound 101], the figures for the “Effects Corn” value in [6] and in test [20] were 0 and 1, respectively. The “Effects Cotton” value in test [7] worked out at 0; in test [21], 2. Moreover, the “Effects Solgum” value in [8] and in test [22] was 1 in each case. Besides, the “Effects Soybean” value in [9] was determined as 0; in test [23], 3. Besides, the “Effects Sugar beat” value in test [10] and in test [24] was 2 each time. The “Effects Wheat” value in [11] was 0; in [25], 1. In addition, the “Effects Large crabgrass” value in [12] was found to be 5; in [26] it was 2. The results for the “Effects Barnyardgrass” value in test [13] and in test [27] were 3 and 1, respectively. Besides, the “Effects Green foxtail” value in [14] was 5; in [28], 2. In addition, the “Effects Blackgrass” value in [15] amounted to 3; in test [29] it was 1. The entries for the “Effects Annual bluegrass” value in test [16] and in [30] were 5 and 1, respectively. In addition, the “Effects Common lambsquarters” value in [17] and in [31] was 4 each time. The “Effects Livid amaranth” value is recorded as 5 in [18] and 4 in [32]. In addition, the “Effects Velvetleaf” value in [19] amounted to 2; in test [33] it was 3. Moreover, the “Effects Morning glory” value in [34] is reported as 3.

The record behind these values is patent US6706664B1, “Benzoxazole compounds, process for the preparation thereof and herbicides” (UBE Industries, Ltd., priority 1999, dated 2004).
